Data set [1] concerns NEAT1. Put plainly: NEAT1 induction under low/chronic or high stress conditions. The data set is classed as cell-based, human. From the text: FIGS. 4A-4F. NEAT1 is induced in human and mouse cells exposed to low stress conditions including exposure to the inducer of senescence aurora-kinase inhibitor AZD1152-HQPA (AZD; FIG. 4A), low doses of Rotenone (Rot; FIG. 4B) that promotes oxidative stress, low doses of doxorubicin (Doxo, FIG. 4C) and replicative stress-induced damage (RS; FIG. 4D).
It has been shown that p53 is induced in MEFs during passages as a response to increasing oxidative stress levels generated by culturing of the cells in normoxic conditions. […] This is in line with chronic stress caused by UV radiation.
The same is true for cells that are exposed to high doses of irradiation (FIG. 4F).

Data set [2] deals with NEAT1. Put plainly: NEAT1 induction by Nutlin3a (RNA-seq, qPCR) in human cell lines. The data set is classed as cell-based. The method, then:
(§1) FIG. 1 provides evidence that NEAT1 is a direct p53 target gene in the breast cancer cell line MCF-7. RNA-seq and p53 ChIPseq experiments have been carried out in MCF-7 cells following exposure to the MDM2 antagonist Nutlin3a for 24 hours.
(§2) This upregulation is mediated through the recruitment of p53 to the NEAT1 promoter as illustrated by the increase intensity of the p53-ChIP-seq peaks (green in FIG. 1).
Both isoforms are affected, with the effect being stronger for the longer isoform (NEAT1_2).
(§3) To differentiate between the different isoforms of NEAT, the following strategy was used. All qPCRs labeled NEAT1 or NEAT1_1 were done with primers targeting the region of +/−2200 bp. The knock-down probes labeled as such also target the region between 2000 and 3756 bp. The RNA-FISH probeset used is made up of a large set of oligos targeting region 1-3756 bp. The primers and knock-down probes labeled NEAT1_2 (the long transcript) target a region of +/−21300 bp. The RNA-FISH probes (again a set of oligos) target the portion from 3800-11700 bp to avoid detection of shorter isoforms.
For orientation: Real-time PCR tracks product formation cycle by cycle.

Another data set relates to MCF-7 cells. Put plainly: Paraspeckles formation by NEAT1 RNA-FISH in Nutlin3a-treated MCF-7 cells. Conditions: for Nutlin-induced paraspeckles formation: MCF-7 following Nutlin exposure, gapmer transfection. The data set is classed as cell-based, human. The protocol: FIGS. 3A and 3B. […] FIG. 3A: MCF-7 cells were exposed to Nutlin3a (for 24 hours) and paraspeckles formation (red dots) was assessed by FISH-analysis with a NEAT1-specific probe set. Nuclei were counter-stained with DAPI (Blue). FIG. 3B: Quantification of paraspeckles formation in MCF-7 cells exposed to Nutlin3a before (mock) and after transfection of the cells with a control/scramble gapmer (scr) or gapmers targeting the NEAT1 transcripts (gap4 and gap6).
as §3
A similar observation in MCF-7 cells treated with p53 shRNA confirms again that this induction is p53-dependent (data not shown). Thus, p53 stimulates the formation of paraspeckles in these cells.

The test system of data set [3] is NEAT1. Put plainly: NEAT1 induction by Nutlin in mouse embryonic fibroblasts. In kind it is cell-based. Conditions: early passage (P3) MEFs. From the text:
FIGS. 7A-7F. NEAT1 is required for primary cells immortalization. NEAT1 expression in induced in mouse embryonic fibroblasts (MEFs) upon Nutlin3a exposure (FIG. 7A) and replicative passaging on a 3T3 protocol (FIG. 7B).

The next data set concerns NEAT1 promoter. In words: p53 ChIP-seq in MCF-7 cells. In kind it is cell-based, human. Conditions: 24 hours. The protocol:
as §1, §2

For data set [4], the system named is cancer cell lines. In words: Apoptosis, caspase 3/7 glow assay and FACS analysis. In kind it is cell-based, human. Conditions: gapmer transfection. From the text: (§4) FIGS. 8A-8D. NEAT1 KD reduces the cell viability of human cancer cell lines. Gapmers 4 and 5 (gap 4 and 5) were used to knock-down the expression of all NEAT1 isoforms, and Gapmer 6 (gap 6) to specifically KD expression of the long isoform, in a series of cancer cell lines.
(§5) To further extend the anti-oncogenic effects observed in NEAT1 KO mice, NEAT1 was inhibited in different cancer cells using LNA-gapmers.
A general note: In flow cytometry, cells or beads pass a laser one at a time.

The test system of data set [5] is NEAT1. Put plainly: NEAT1 knock-down by LNA-gapmers (relative RNA levels, qPCR). The data set is classed as cell-based, human. Conditions: for NEAT1 expression (knock-down): gapmer transfection, cancer cell lines; for NEAT1 isoforms inhibited: long (NEAT1_2) versus short isoform.
Text: as §4
FIGS. 9A-9C. Knock-down of NEAT1 impairs HR and NHEJ DNA repair (FIG. 9A) but not Alt-NHEJ or SSA (FIG. 9B). […] SCR: scrambled control. Blue bars, all NEAT1 isoforms. Green bars, long NEAT1 isoform.
as §3, §5
To confirm the hypothesis that NEAT1 inhibition interferes with DNA repair, U2OS cells were exposed to different concentrations of the DNA-damaging agent bleomycin. In NEAT1-inhibited cells, DNA damage (as measured by γH2AX intensity) is indeed increased (FIG. 9C, last three panels). Thus, DNA repair is severely impaired in NEAT1 KD cells.

For data set [6], the system named is cancer cell lines. In words: Paraspeckles formation in cancer cell lines after gapmer transfection. In kind it is cell-based, human.
Text: as §4, §5

A further data set relates to MCF-7. In words: WST1-assay of cell growth / metabolic activity. The data set is classed as cell-based, human. Conditions: gapmer transfection.
Text: as §4, §5
On the technique in general: Tetrazolium dyes change colour on reduction, which living cells bring about.

Another data set concerns BJ. In words: Paraspeckles formation in immortalized human diploid fibroblast cell line BJ. Conditions: BJ cells, LNA-gapmer transfection. The data set is classed as cell-based.

Entries after “also recorded” stand apart in the source; their conditions may differ.

On to `CCN(CCO)CCCOc1ccc2c(Nc3cc(CC(=O)Nc4cccc(F)c4)[nH]n3)ncnc2c1` [AZD, AZD1152-HQPA], for which the NEAT1 induction entry in the data set with NEAT1 [1] (melanoma cells Mel 501 undergoing senescence) is listed as “induced”.
For the compound `COc1cccc2c1C(=O)c1c(O)c3c(c(O)c1C2=O)C[C@@](O)(C(=O)CO)C[C@@H]3O[C@H]1C[C@H](N)[C@H](O)[C@H](C)O1` [Doxorubicin], the NEAT1 induction entry is given as “not significantly” in the data set on NEAT1 [1] (higher dose (5 μM)) and “induced” in the data set with NEAT1 [1] (low dose).
Turning to `COc1ccc(C2=N[C@@H](c3ccc(Cl)cc3)[C@@H](c3ccc(Cl)cc3)N2C(=O)N2CCNC(=O)C2)c(OC(C)C)c1` [Nutlin3a], the “transcription of NEAT1 (RNA-seq)” value with NEAT1 [2] (MCF-7 cells, 24 hours) is “induces transcription of NEAT1”. The “expression of NEAT1” value is given as “induces expression of NEAT1” in the data set on NEAT1 [2] (U2OS, A459, human ES cells, BJ) and “induces expression of NEAT1” in the data set with NEAT1 [3]. In addition, the NEAT1 induction result is on record as “NEAT1 induction in response to Nutlin can be seen” with NEAT1 [2] (colorectal cancer cell line HCT116) and “not in an isogenic p53 KO HCT116 cell line” with NEAT1 [2] (isogenic p53 KO HCT116 cell line). Also, the paraspeckles formation result with MCF-7 cells (MCF-7 cells, Nutlin alone) is recorded as “induces paraspeckles formation”. For the same compound, the “recruitment of p53 to the NEAT1 promoter (p53-ChIP peaks)” value with NEAT1 promoter was “p53 is directly recruited to the NEAT1 promoter”.
As for `C=C(C)[C@H]1Cc2c(ccc3c2O[C@@H]2COc4cc(OC)c(OC)cc4[C@@H]2C3=O)O1` [rotenone], in the data set on NEAT1 [1] (BJ cells, oxidative stress), the NEAT1 induction result is on record as “induced”.
For the compound “NEAT1-Gapmer4: LNA-gapmer, SEQ ID NO: 2, GACGTAACAGAATT; inhibits both long and short isoform of NEAT1 (LNA gapmer, LNA positions and linkages not given here)”, the “apoptosis (caspase 3/7 glow assay, FACS analysis)” value in the data set with cancer cell lines [4] is given as “induction of apoptosis”. The Nutlin-induced paraspeckles formation result in the data set on MCF-7 cells is on record as “dramatically attenuated”. Also, the “NEAT1 expression (knock-down)” value with NEAT1 [5] (listed as gap 4) is “efficiently knockdown NEAT1; also recorded: robust decrease in NEAT1 expression”. In addition, the NEAT1 isoforms inhibited entry in the data set with NEAT1 [5] was “inhibit both the long and short isoform of NEAT1”. Besides, in the data set with cancer cell lines [6], the paraspeckles formation result was “robust decrease”. Moreover, the “MCF-7 growth (WST1-assay)” value in the data set on MCF-7 is listed as “decrease MCF-7 growth significantly”. Also, the formation of paraspeckles result with BJ was “decrease the formation of paraspeckles”.
For the compound “NEAT1-Gapmer5: LNA-gapmer, SEQ ID NO: 3, TAAGCACTTTGGAAAG; inhibits both long and short isoform of NEAT1 (LNA gapmer, LNA positions and linkages not given here)”, the “apoptosis (caspase 3/7 glow assay, FACS analysis)” value in the data set with cancer cell lines [4] is on record as “induction of apoptosis”. In addition, the “NEAT1 expression (knock-down)” value in the data set with NEAT1 [5] (listed as gap 5) is recorded as “efficiently knockdown NEAT1; also recorded: robust decrease in NEAT1 expression”. Further, the NEAT1 isoforms inhibited entry with NEAT1 [5] is “inhibit both the long and short isoform of NEAT1”. For the same compound, in the data set with cancer cell lines [6], the paraspeckles formation result is “robust decrease”. The “MCF-7 growth (WST1-assay)” value with MCF-7 is given as “decrease MCF-7 growth significantly”.
For “NEAT1-Gapmer6: LNA-gapmer, SEQ ID NO: 4, CTCACACGTCCATCT; specific for the long isoform of NEAT1 (LNA gapmer, LNA positions and linkages not given here)”, in the data set on MCF-7 cells, the Nutlin-induced paraspeckles formation entry was “dramatically attenuated”. In the data set with NEAT1 [5], the “NEAT1 expression (knock-down)” value is reported as “efficiently knockdown NEAT1” and the NEAT1 isoforms inhibited result was “specific for the long isoform”. In the data set on NEAT1 [5] (long transcript NEAT1_2, U2OS cells), the KD efficiency result is given as “about 50%”. Moreover, the “MCF-7 growth (WST1-assay)” value in the data set on MCF-7 was “decrease MCF-7 growth significantly”. Further, in the data set on BJ, the formation of paraspeckles entry was “decrease the formation of paraspeckles”.

Source of the values: patent US9783803B2, “Inhibition of NEAT1 for treatment of solid tumors” (VIB VZW, priority 2014, dated 2017).
